Assay results reported in patent US3934036A, “N-benzenesulfonyl-β-alanine hydrazide useful as an immunosuppressive agent” (priority 1975, dated 1976).
“Also recorded” adds a separate entry of the source.

Assays:
adjuvant arthritis = experiment: Adjuvant arthritis in rats, prophylactic experiment; settings: for increase in arthritis score / swelling of adjuvant-injected and non-injected feet: once daily for 17 days
[1] = established immunosuppressive drugs; cited from earlier work
7S plaque-forming cells = experiment: Antibody production to sheep erythrocytes, 7S plaque-forming cells, comparison with other agents; settings: i.p.; for Spleen weight, mean ± S.E. / 7S PFC/10^6 spleen cells, mean ± S.E. / Mean body weight gain: 8 days; for Spleen weight, mean ± S.E.: control 125 ± 16; for 7S PFC/10^6 spleen cells, mean ± S.E.: control 1045 ± 202; for Mean body weight gain: control +1.0
Protocol: The effect of KH-125 on antibody production in ddY mice was examined by Cunningham and Szenberg's plaque technique (Immunology, 14, 599, 1968) and compared with other agents.
Mice were immunized by intravenous injection of washed sheep erythrocytes (4 × 10^8 cells/mouse). Administration of KH-125 was made orally for 4 consecutive days from the day of antigen injection. 19S Plaque-forming cells (PFC) were counted 4 days after immunization.
In comparative experiment, test agents were administered intraperitoneally for 8 consecutive days from one day before immunization. 7S PFC's were counted 9 days after immunization.

mice and rats = experiment: Carcinogenic tests; type: in vivo
Protocol: (§1) Its toxicological properties were evaluated by subacute and chronic toxicity tests in rats, by teratological studies in rats and rabbits and also by carcinogenic tests in mice and rats.

nephrotoxic nephritis [2] = experiment: Nephrotoxic nephritis in rats, prophylactic experiment; type: in vivo, Wistar rats
Protocol: Protein-uria was measured 18 days after nephrotoxin injection, then for electron microscopic examination the rats were killed 2 days later.
Urinary protein was measured 18 days after the nephrotoxin-injection, and then the nephrotic rats were sacrificed 2 days later for histopathological examinations.

19S plaque-forming cells = experiment: Antibody production to sheep erythrocytes, 19S plaque-forming cells (oral administration); type: in vivo, ddY mice; settings: 4 days; for Mean body weight gain: control +0.8
Excerpt: Mice were immunized by intravenous injection of washed sheep erythrocytes (4 × 10^8 cells/mouse). […] 19S Plaque-forming cells (PFC) were counted 4 days after immunization.

Wistar rats [3] = experiment: Chronic toxicity study, 6 months oral; type: in vivo
Protocol: The chronic toxicity study of KH-125 was carried out in Wistar rats of both sexes. Rats were treated orally with KH-125 for 6 months at the dose levels of 0 (control), 10, 20 and 40 mg/kg/day.

rats and rabbits = experiment: Teratological studies; type: in vivo
Protocol: as §1

rats, rabbits and mice = experiment: Subacute and chronic toxicity, teratological and carcinogenic studies (summary); type: in vivo; settings: subacute, chronic
Protocol: as §1

[4] = Acute toxicity in mice (LD50); type: in vivo, ddY mice; settings: mouse, in vivo
Protocol: (§2) The acute toxicity of KH-125 was studied in both sexes of ddY mice and Wistar rats. The LD50 values were calculated by the method of Litchfield and Wilcoxon (J. Pharmacol. Exptl. Ther., 96, 99, 1949).

ddY mice = experiment: Acute toxicity in mice (LD50); type: in vivo; settings: mice, male vs female
Protocol: as §2

[5] = tested on: antibody formation to sheep erythrocytes; experiment: Screening for ability to suppress antibody formation to sheep erythrocytes in mice; type: in vivo
Protocol: In an attempt to find an immunosuppressive agent having a lowered toxicity, about fifty acid hydrazides, mainly amino acid hydrazide derivatives, were synthesized and screened for their ability to suppress the antibody formation to sheep erythrocytes in mice. […] Further detailed pharmacological and toxicological studies were then performed about KH-125.

[6] = Acute toxicity in rats (LD50); type: in vivo, Wistar rats; settings: rat, in vivo
Protocol: as §2

Wistar rats [7] = experiment: Acute toxicity in rats (LD50); type: in vivo; settings: rats, male vs female
Protocol: as §2

nephrotoxic nephritis [8] = experiment: Nephrotoxic nephritis in rats, comparative experiment; type: in vivo, Wistar rats; settings: p.o. once daily, 15 days; protein-uria, fusion index, basement membrane thickening
Protocol: Protein-uria was measured 18 days after nephrotoxin injection, then for electron microscopic examination the nephrotic rats were killed 3 days later. See legend of FIG. 2 for other details.
The effect of KH-125 on nephrotoxic nephritis in Wistar rats was evaluated from the following three points: (1) urinary protein measurements, (2) electron microscopic findings and (3) light microscopic findings. Nephrotic rats were prepared according to Shibata's method. (Ths Saishin-Igaku, 20, 1089, 1965).
In a comparative experiment, test agents were administered once daily: KH-125, 15 days during days 0 - 10 and 15 - 18 (p.o.); 6-mercaptopurine (6-MP), 6 days during days 0 - 5 (p.o.); cyclophosphamide, 11 days during days 0 - 10 (i.p.); and prednisolone, 11 days during days 0 - 10 (i.p.), starting from the day of nephrotoxin-injection. Urinary protein was measured 18 days after the injection of nephrotoxin, and then the animals were sacrificed 3 days later for histopathological examinations.

[9] = oral, electron microscopic findings
[10] = 6 months, 10, 20 and 40 mg/kg/day

Compound: Sc1ncnc2nc[nH]c12 [6-mercaptopurine, reference compound]
- rats died during the experiment (adjuvant arthritis; oral, 30 mg/kg/day, 17 days): Three of 7
- increase in arthritis score (adjuvant arthritis; oral): dose-dependently suppressed
- swelling of adjuvant-injected and non-injected feet (adjuvant arthritis; oral): dose-dependently suppressed
- teratogenic and carcinogenic effect [1]: inevitably shared
- Spleen weight, mean ± S.E. (7S plaque-forming cells; 30 mg/kg/day): 103 ± 12 mg
- 7S PFC/10^6 spleen cells, mean ± S.E. (7S plaque-forming cells; 30 mg/kg/day, p < 0.05): 385 ± 83 7SPFC/10^6 spleen cells

Compound: NNC(=O)CCNS(=O)(=O)c1ccccc1 [KH-125, N-benzenesulfonyl-β-alanine hydrazide]
- carcinogenic effect (mice and rats): neither teratogenic nor carcinogenic effect
- light microscopic findings (nephrotoxic nephritis [2]; oral): good improvement of nephritis
- fusion index of epithelial foot processes (nephrotoxic nephritis [2]; [9]): improved
- thickening of glomerular basement membrane (nephrotoxic nephritis [2]; [9]): suppressed
- protein-uria (nephrotoxic nephritis [2]; oral, twice a day, 18 days after nephrotoxin injection): decreased dose-dependently
- suppression of experimental nephrotoxic nephritis (summary) (nephrotoxic nephritis [2]; rats): suppress adjuvant arthritis as well as experimental nephrotoxic nephritis
- Spleen weight, mean ± S.E. (19S plaque-forming cells; 40 mg/kg/day, control 181 ± 8): 135 ± 20 mg
- 19S PFC/10^6 spleen cells, mean ± S.E. (19S plaque-forming cells; 40 mg/kg/day, control 1905 ± 267): 1383 ± 327 19S PFC/10^6 spleen cells
- Mean body weight gain (19S plaque-forming cells; 40 mg/kg/day): +1.0 g
- Spleen weight, mean ± S.E. (19S plaque-forming cells; 80 mg/kg/day, control 181 ± 8, p < 0.05): 139 ± 9 mg
- 19S PFC/10^6 spleen cells, mean ± S.E. (19S plaque-forming cells; 80 mg/kg/day, control 1905 ± 267, p < 0.01): 368 ± 124 19S PFC/10^6 spleen cells
- Mean body weight gain (19S plaque-forming cells; 80 mg/kg/day): -0.8 g
- Spleen weight, mean ± S.E. (19S plaque-forming cells; 160 mg/kg/day, control 181 ± 8): 164 ± 14 mg
- 19S PFC/10^6 spleen cells, mean ± S.E. (19S plaque-forming cells; 160 mg/kg/day, control 1905 ± 267, p < 0.01): 329 ± 46 19S PFC/10^6 spleen cells
- Mean body weight gain (19S plaque-forming cells; 160 mg/kg/day): -0.5 g
- appearance of 19S PFC (19S plaque-forming cells; 40-160 mg/kg/day): dose-dependently suppressed
- rebound of foot swelling after withdrawal (adjuvant arthritis; after withdrawal): not prominent
- survival during the experiment (adjuvant arthritis; oral, as high as 80 mg/kg/day, 17 days): survived throughout the test period
- increase in arthritis score (adjuvant arthritis; oral): dose-dependently suppressed
- swelling of adjuvant-injected and non-injected feet (adjuvant arthritis; oral): dose-dependently suppressed
- suppression of adjuvant arthritis (summary) (adjuvant arthritis; rats): suppress adjuvant arthritis
- safety margin (maximal tolerated dose in repeated administration versus effective dose) relative to 6-mercaptopurine (adjuvant arthritis; versus 6-mercaptopurine, adjuvant arthritis): about 3 times
- body weight gain (Wistar rats [3]; 6 months, 40 mg/kg/day): slightly inhibited
- erythrocyte count and hemoglobin (Wistar rats [3]; [10]): dose-dependent decrease
- general symptoms, food intake, urinalysis, and fractionation of serum protein (Wistar rats [3]; [10]): No significant effects
- histopathological examinations (Wistar rats [3]; [10]): No toxic effects which could be attributed to the drug were detected
- serum enzyme activities, S-GOT and S-GPT (Wistar rats [3]; [10]): slight but dose-dependent increases
- survival (Wistar rats [3]; [10]): All rats survived
- teratogenic effect (rats and rabbits): neither teratogenic nor carcinogenic effect
- toxicity compared with well-known immunosuppressive agents (rats, rabbits and mice): considerably lower toxicity than well-known immunosuppressive agents
- LD50 ([4]; ip, female mice): 1410 mg/kg
- LD50 ([4]; ip, male mice): 1230 mg/kg
- LD50 ([4]; po, female mice): 1570 mg/kg
- LD50 ([4]; po, male mice): 1520 mg/kg
- LD50 ([4]; sc, female mice): 1440 mg/kg
- LD50 ([4]; sc, male mice): 1150 mg/kg
- sex difference concerning the acute toxicity (ddY mice): No sex difference
- immunosuppressive activity among about fifty acid hydrazides tested ([5]; mice, antibody formation to sheep erythrocytes): most potent immunosuppressive activity
- acute toxicity among the compounds tested ([5]; screening): fairly lower acute toxicity
- LD50 ([6]; ip, female rats): 2580 mg/kg
- LD50 ([6]; ip, male rats): 2150 mg/kg
- LD50 ([6]; po, female rats): > 4000 mg/kg
- LD50 ([6]; po, male rats): > 4000 mg/kg
- LD50 ([6]; sc, female rats): > 4000 mg/kg
- LD50 ([6]; sc, male rats): > 4000 mg/kg
- sex difference concerning the acute toxicity (Wistar rats [7]): No sex difference
- Spleen weight, mean ± S.E. (7S plaque-forming cells; 200 mg/kg/day, p < 0.01): 60 ± 8 mg
- 7S PFC/10^6 spleen cells, mean ± S.E. (7S plaque-forming cells; 200 mg/kg/day, p < 0.01): 233 ± 63 7SPFC/10^6 spleen cells
- Mean body weight gain (7S plaque-forming cells; 200 mg/kg/day): -4.5 g
- suppressive effect on the appearance of 7S PFC, compared with other agents (7S plaque-forming cells; 8 consecutive days): higher than that of prednisolone or 6-mercaptopurine; also recorded: less effective than cyclophosphamide
- suppression of nephrotoxic nephritis, compared with 6-mercaptopurine, cyclophosphamide and prednisolone (nephrotoxic nephritis [8]): most effectively suppressed

Compound: O=P1(N(CCCl)CCCl)NCCCO1 (stereo not drawn) [cyclophosphamide]
- teratogenic and carcinogenic effect [1]: inevitably shared
- Spleen weight, mean ± S.E. (7S plaque-forming cells; 20 mg/kg/day, p < 0.05): 87 ± 7 mg
- 7S PFC/10^6 spleen cells, mean ± S.E. (7S plaque-forming cells; 20 mg/kg/day, p < 0.01): 61 ± 8 7SPFC/10^6 spleen cells
- Mean body weight gain (7S plaque-forming cells; 20 mg/kg/day): +0.2 g

Compound: C[C@]12C=CC(=O)C=C1CC[C@@H]1[C@@H]2[C@@H](O)C[C@@]2(C)[C@H]1CC[C@]2(O)C(=O)CO [prednisolone]
- Spleen weight, mean ± S.E. (7S plaque-forming cells; 4 mg/kg/day): 116 ± 19 mg
- 7S PFC/10^6 spleen cells, mean ± S.E. (7S plaque-forming cells; 4 mg/kg/day): 706 ± 178 7SPFC/10^6 spleen cells
